Ends that are not written are not given here.
Columns and labels:
TRPV1 = conditions: cited from earlier work
Source text: To further corroborate our findings in FRET experiments of heat-desensitized channels, we took an alternative experimental strategy where we measured the changes in FRET induced by centipede toxin RhTx. […] Thus, we believe that the prolonged application of RhTx mimicked the effect ... || Based on the site-specific structural dynamics information, we computationally modeled the three-dimensional structure of mV1 in the Dh state. The blue shift in ANAP emission indicated a transition into a more hydrophobic environment at the 630 site, which provided an experimentally derived constraint for structural modeling using a recently published approach. As the heat-activated state of TRPV1 channels has not been resolved, we employed the double-knot toxin-bound state determined by cryo-EM (PDB ID: 3J5Q)[20] as the open state model, because a previous study had shown that Redhead tox ... || To model the heat-induced desensitized state of TRPV1, membrane-symmetry-loop modeling was performed using the Rosetta molecular modeling suite[41] version 2015.25. […] The selectivity filter, the pre S6 linker, and the S1–S2 linker were modeled de novo with the kinematic (KIC) loop modeling protocol[42],[43]. Ten th ... || (+ 1 further places)

[1] = target: T1, N-terminal region of mV1 (mN region, 1M-433R) (Mus musculus, UniProt Q704Y3); test: SPR, N-terminal region of mV1 immobilized; type: binding; conditions: 47.6 to 95.2 μM, 15 °C
T1 construct: N-terminal region of mV1 (mN region, 1M-433R)
Method: Note that the desensitization of mV1 occurs before cooling starts. Amplitude ratio (n = 7, two-sided t-test: *p < 0.01) between desensitized currents (Id) and maximum currents (Imax) induced by heat at 45 °C (right panel). c Superimposed representative temperature–response relationships of heat-evoked currents in HEK293T cells transiently transfected with pV1 and mV1. d Chimeric channels were generated between mV1 (gray) and pV1 (yellow) on the basis of the location of transmembrane domains. […] Channel plasmid was co-expressed with C-terminal region of pV1 (pC, 701N-851E) or mV1 (mC, 688N-839K). g Example current induced by a temperature ramp recorded from whole-cell patches with 1 mM mV1 C-terminal peptide (mC peptide) or random peptide in the pipette solution. h The mC peptide was perfused over an SPR sensor coated with the N-terminal region of mV1 (mN region, 1M-433R) at 15 or 35 °C (left and middle panels). The mC peptide in 95.2 μM was perfused over an SPR sensor coated with mN region at 15, 30, 33, and 35 °C (right panel). i Significant concentration and temperaturedependence of the interaction between N and C termini (n = 6, two-sided t-test: *p < 0.01). All statistical data are given as mean ± SEM. Source data are provided as a Source data file […]

mV1 = target: T2, mV1 (Mus musculus, UniProt Q704Y3); test: Inhibition of Dh of mV1 by C-terminal peptides or co-expressed C terminus, whole-cell; type: cell-based; set-up: Tau values: unit not given here; conditions: for Id/Imax / Tau values: Supplementary figure 1e
T2 construct: expressed in transfected cells; host or cells: HEK293T
Source text: To generate the mC plasmid, the pEGFP-N1 vector enzyme cutting sites by HindIII and EcoRI were made by QuickCut Hind III and QuickCut EcoR I. The primer pair (5′- […]-3′ and 5′- […]-3′) for mouse TRPV1 was generated. pEGFP-N1 enzyme digestion vector and mouse TRPV1 PCR fragment were used for homologous recombination.
The pC plasmid was generated by the primer pair (5′-[…]-3′ and 5′-[…]-3′) and the homologous recombination between the pEGFP-N1 enzyme digestion vector and platypus TRPV1 PCR fragment were used.
The C-terminal peptides were synthesized[26] as the following sequences:
Random peptide: […]
(§1) All recordings were performed at room temperature.
(§2) Temperature control was achieved by perfusion of preheated or precooled solutions. Solutions were heated with an SHM-828 eight-line heater controlled by a CL-100 temperature controller (Harvard Apparatus). A custom-made manifold was attached to the output ports of the heater to deliver solutions to the recording chamber and provide heat insulation. Solutions were cooled by embedding the solution reservoirs in ice water and then perfused through a separate line. The patch pipette was placed about 1 mm from the solution output ports. A TA-29 miniature bead thermistor (Harvard Apparatus) was placed right next to the pipette, to ensure accurate monitoring of local temperature. The thermistor’s temperature readout was fed into an analog input of the patch amplifier and recorded simultaneously with current. With this method, we achieved rapid and reliable temperature changes.

[2] = target: T3, N-terminal region of mV1 (mN region, 1M-433R) (mouse, UniProt Q704Y3 1-433); test: SPR; mN region (1M-433R) immobilised on the sensor chip, mC peptide (30 aa) perfused at 47.6 and 95.2 uM; 15 °C ('low temperature'); conditions: both partners purified
T3 construct: mouse TRPV1 (mV1), N-terminal region, residues 1M-433R; In the functional rows the N terminus stood within the whole mV1 channel in HEK293T cells; also called N-terminal peptides; N terminus of mV1

[3] = target: T3, N-terminal region of mV1 (mN region, …); test: SPR; mN region (1M-433R) immobilised on the sensor chip, mC peptide (30 aa) perfused at 47.6 and 95.2 uM; 35 °C ('high temperature'); conditions: both partners purified
mV1, pV1 and mutants = test: Heat-induced desensitization (Dh): Id/Imax and tau, patch clamp; type: cell-based, mouse; platypus; conditions: Figure 2g
Method: as §1, §2

[4] = Id/Imax_Average of 6 replicates, SD and SEM in columns of their own
[5] = Tau values_Average of 6 replicates, SD and SEM in columns of their own

C=C(C)[C@]12C[C@@H](C)[C@@]34O[C@](Cc5ccccc5)(O[C@@H]1[C@@H]3C=C(COC(=O)Cc1ccc(O)c(OC)c1)C[C@]1(O)C(=O)C(C)=C[C@@H]41)O2 [RTX]
activation through heat activation pathway (TRPV1): activated the channel through heat activation pathway

PEEVQLKHYTGSLKPEDAEVFKDSMAPGEK [mC peptide]
increase in SPR response [1]: 162%

QVEEPTYHKLPKLSGVEADEMSDKFKEGPM [Random peptide]
inhibition of Dh of mV1 (mV1; 1 mM peptide in pipette solution, whole-cell): failed to inhibit Dh

GSLKPEDAEVFKDSMAPGEK [Pep_20, C-terminal peptide]
Id/Imax (mV1; [4]): 0.596 | Tau values (mV1; [5]): 29.8 | Id/Imax (mV1; replicate 1): 0.486 | Tau values (mV1; replicate 1): 23.5 | Id/Imax (mV1; replicate 2): 0.667 | Tau values (mV1; replicate 2): 38.3 | Id/Imax (mV1; replicate 3): 0.715 | Tau values (mV1; replicate 3): 20.7 | Id/Imax (mV1; replicate 4): 0.612 | Tau values (mV1; replicate 4): 24.4 | Id/Imax (mV1; replicate 5): 0.567 | Tau values (mV1; replicate 5): 39.6 | Id/Imax (mV1; replicate 6): 0.529 | Tau values (mV1; replicate 6): 32.3

LKHYTGSLKPEDAEVFKDSMAPGEK [Pep_25, C-terminal peptide]
Id/Imax (mV1; [4]): 0.403 | Tau values (mV1; [5]): 59.5 | Id/Imax (mV1; replicate 1): 0.318 | Tau values (mV1; replicate 1): 43.8 | Id/Imax (mV1; replicate 2): 0.509 | Tau values (mV1; replicate 2): 73 | Id/Imax (mV1; replicate 3): 0.427 | Tau values (mV1; replicate 3): 60.4 | Id/Imax (mV1; replicate 4): 0.384 | Tau values (mV1; replicate 4): 48.3 | Id/Imax (mV1; replicate 5): 0.367 | Tau values (mV1; replicate 5): 52 | Id/Imax (mV1; replicate 6): 0.413 | Tau values (mV1; replicate 6): 79.5

B1: mV1 C-terminal peptide (Pep_30) (peptide)
peptide: PEEVQLKHYTGSLKPEDAEVFKDSMAPGEK
notes: last 30 residues of mouse TRPV1 (mV1); The text ties the SPR and the pipette experiment to 'a 30-amino-acid' C-terminal peptide; Pep_30 is the only printed peptide of that length from mV1; also called mC peptide; C-terminal peptides (a 30-amino-acid molecule); source: synthetic peptide
Kd [2]: 140 nM | Kd [3]: 3 nM

B2: C terminus of mV1: C-terminal region of mV1 (mC, 688N-839K), co-expressed plasmid (protein)
chain: NKIAQESKNIWKLQRAITILDTEKSFLKCMRKAFRSGKLLQVGFTPDGKDDFRWCFRVDEVNWTTWNTNVGIINEDPGNCEGVKRTLSFSLRSGRVSGRNWKNFALVPLLRDASTRDRHSTQPEEVQLKHYTGSLKPEDAEVFKDSMAPGEK
modifications: left off: eGFP (from the vector pEGFP-N1), end not stated, state not stated
notes: C-terminal region of mV1 (mC, 688N-839K), co-expressed plasmid
inhibition of Dh of mV1 (mV1; co-expression with C-terminal region): largely inhibited

B3: DkTx: peptide toxin, double-knot toxin (peptide, UniProt P0CH43 1-79, looked up)
Tau-theraphotoxin-Hs1a: DCAKEGEVCSWGKKCCDLDNFYCPMEFIPHCKKYKPYVPVTTNCAKEGEVCGWGSKCCHGLDCPLAFIPYCEKYRGRND
activation through heat activation pathway (TRPV1): activated the channel through heat activation pathway | mimicry of heat activation (TRPV1): mimic heat activation of TRPV1

B4: mV1 (protein, UniProt Q704Y3 1-839, looked up)
Transient receptor potential …: MEKWASLDSDESEPPAQENSCPDPPDRDPNSKPPPAKPHIFATRSRTRLFGKGDSEEASPMDCPYEEGGLASCPIITVSSVVTLQRSVDGPTCLRQTSQDSVSTGVETPPRLYDRRSIFDAVAQSNCQELESLLSFLQKSKKRLTDSEFKDPETGKTCLLKAMLNLHNGQNDTIALLLDIARKTDSLKQFVNASYTDSYYKGQTALHIAIERRNMALVTLLVENGADVQAAANGDFFKKTKGRPGFYFGELPLSLAACTNQLAIVKFLLQNSWQPADISARDSVGNTVLHALVEVADNTADNTKFVTNMYNEILILGAKLHPTLKLEELTNKKGLTPLALAASSGKIGVLAYILQREIHEPECRHLSRKFTEWAYGPVHSSLYDLSCIDTCEKNSVLEVIAYSSSETPNRHDMLLVEPLNRLLQDKWDRFVKRIFYFNFFVYCLYMIIFTTAAYYRPVEGLPPYKLNNTVGDYFRVTGEILSVSGGVYFFFRGIQYFLQRRPSLKSLFVDSYSEILFFVQSLFMLVSVVLYFSHRKEYVASMVFSLAMGWTNMLYYTRGFQQMGIYAVMIEKMILRDLCRFMFVYLVFLFGFSTAVVTLIEDGKNNSLPVESPPHKCRGSACRPGNSYNSLYSTCLELFKFTIGMGDLEFTENYDFKAVFIILLLAYVILTYILLLNMLIALMGETVNKIAQESKNIWKLQRAITILDTEKSFLKCMRKAFRSGKLLQVGFTPDGKDDFRWCFRVDEVNWTTWNTNVGIINEDPGNCEGVKRTLSFSLRSGRVSGRNWKNFALVPLLRDASTRDRHSTQPEEVQLKHYTGSLKPEDAEVFKDSMAPGEK
Id/Imax_Average (mV1, pV1 and mutants; mean of replicates): 0.993 | Id/Imax (mV1, pV1 and mutants; replicate 1): 0.9971 | Id/Imax (mV1, pV1 and mutants; replicate 2): 0.9951 | Id/Imax (mV1, pV1 and mutants; replicate 3): 0.999 | Id/Imax (mV1, pV1 and mutants; replicate 4): 0.9588 | Id/Imax (mV1, pV1 and mutants; replicate 5): 0.9972 | Id/Imax (mV1, pV1 and mutants; replicate 6): 0.9943 | Id/Imax (mV1, pV1 and mutants; replicate 7): 0.9968 | Id/Imax (mV1, pV1 and mutants; replicate 8): 0.9956 | Id/Imax (mV1, pV1 and mutants; replicate 9): 0.9982 | Id/Imax (mV1, pV1 and mutants; replicate 10): 0.9979
